# According to patent US4435404A, “Carbostyril derivatives” (priority 1980, dated 1984):
# Where two headings read alike, the source gives them in different places.
# Key:
# [1] = test system: collagen-induced aggregation in rabbit platelet; assay: Inhibition effect on collagen-induced aggregation in rabbit platelet; assay type: cell-based; details: for inhibition at 10 µM / inhibition at 1 µM / inhibition at 0.1 µM / inhibition at 100 µM: Oryctolagus cuniculus, Platelet, read-out: Inhibition effect on collagen-induced aggregation
# Experimental: (§1) The platelet aggregation inhibitory effect is measured by using AG-II aggregometer (manufactured by Bryston Manufacturing Co.). The blood sample used for the test is a 1/9 (by volume) mixture of sodium citrate and whole blood collected from rabbit. Said sample is subjected to 10-minute centrifugal separation at 1,000 r.p.m. to obtain a platelet rich plasma (PRP). The thus obtained PRP is separated, and the remaining blood sample is further subjected to 15-minute centrifugal separation at 3,000 r.p.m. to obtain a platelet poor plasma (PPP).
# (§2) The number of platelets in the PRP is counted by the Brecher-Clonkite Method, and the PRP is diluted with the PPP to prepare a PRP sample with platelet concentration of 300,000/mm^3 for the adenosine diphosphate (ADP)-induced aggregation test. There is also prepared a PRP sample with platelet concentration of 450,000/mm^3 for the collagen-induced aggregation test.
# (§3) 0.6 Milliliter of said PRP sample is added into 0.01 ml of a solution of a test compound of a predetermined concentration and the mixture is placed in a 37° C. thermostat for one minute. Then 0.07 ml of an ADP or collagen solution is added to the mixture. Transmittance of this mixture is determined and the change of transmittance is recorded by using the aggregometer at stirrer speed of 1,100 r.p.m. […] The ADP solution is adjusted to a concentration of 7.5×10^-5 M, and the collagen solution is prepared by triturating 100 mg of collagen with 5 ml of said buffer and the supernatant is used as collagen inducer. Acetylsalicylic acid is used as control for the ADP-induced aggregation test and the collagen-induced aggregation test, respectively. The platelet aggregation inhibitory effect is measured in terms of percent inhibition with respect to the aggregation rate of the controls. The aggregation rate is calculated from the following formula:
# (§4) Aggregation rate=[(c-a)/(b-a)]×100
# (§5) b: transmittance of PRP containing a test compound and an aggregation inducer
# [2] = test system: ADP-induced aggregation in rabbit platelet; assay: Inhibition effect on ADP-induced aggregation in rabbit platelet; assay type: cell-based; details: for inhibition at 100 µM / inhibition at 10 µM / inhibition at 1 µM / inhibition at 0.1 µM: Oryctolagus cuniculus, Platelet; for inhibition at 10 µM / inhibition at 1 µM / inhibition at 0.1 µM: read-out: Inhibition effect on ADP-induced aggregation; for inhibition at 0.1 µM: concentration of the test compound solution 10^-7 mole
# Experimental: as §1, §2, §3, §4, §5
# Acute Toxicity Test = details: mouse, in vivo; male mice, oral administration
# Experimental: The test compounds were administered orally to the mice and LD50 (mg/kg) of the compounds was determined.
# [3] = concentration of the test compound solution 10^-5 mole
# [4] = concentration of the test compound solution 10^-6 mole
# [5] = concentration of the test compound solution 10^-4 mole
# [6] = concentration of the test compound solution 10^-7 mole
SMILES,"inhibition at 10 µM [1, 3]","inhibition at 1 µM [1, 4]","inhibition at 100 µM [2, 5]","inhibition at 10 µM [2, 3]","inhibition at 1 µM [2, 4]",LD50 (Acute Toxicity Test),other results
"O=C1CCc2cc(OCCCCC(=O)N(CCCCO)CC3CCCCC3)ccc2N1 [No. 8, 6-{4-[N-(4-Hydroxybutyl)-N-cyclohexylmethylaminocarbonyl]butoxy}-3,4-dihydrocarbostyril]",100%,10.2%,100%,72.1%,12.2%,> 1000 mg/kg,–
"O=C(CCCOc1ccc2[nH]c(=O)ccc2c1)N1CCC(c2ccccc2)CC1 [No. 16, 6-[3-(4-Phenyl-1-piperidylcarbonyl)propoxy]carbostyril]",40.8%,7.7%,100%,27.9%,4.9%,> 1000 mg/kg,–
"COCCN(C(=O)CCCCOc1ccc2[nH]c(=O)ccc2c1)C1CCCCC1 [No. 23, 6-{4-[N-(2-Methoxyethyl)-N-cyclohexylaminocarbonyl]butoxy}carbostyril]",100%,90.5%,100%,100%,91.9%,> 1000 mg/kg,"inhibition at 0.1 µM [1, 6]: 67%; inhibition at 0.1 µM [2]: 40.4%"
"O=C1CCc2cc(OCCCCC(=O)N(CCO)CC3CCCCO3)ccc2N1 (centres unmarked) [No. 13, 6-{4-[N-(2-Hydroxyethyl)-N-(2-tetrahydropyranylmethyl)aminocarbonyl]butoxy}-3,4-dihydrocarbostyril]",81.7%,5.2%,100%,30.1%,5.3%,> 1000 mg/kg,–
"CC(=O)OCCCN(CC1CCCCO1)C(=O)CCCCOc1ccc2c(c1)CCC(=O)N2 (centres unmarked) [No. 21, 6-{4-[N-(3-Acetyloxypropyl)-N-(2-tetrahydropyranylmethyl)aminocarbonyl]butoxy}-3,4-dihydrocarbostyril]",82.9%,34.2%,100%,60.6%,18.6%,> 1000 mg/kg,–
"COc1ccc(CCN(CCO)C(=O)CCCCOc2ccc3[nH]c(=O)ccc3c2)cc1OC [No. 20, 6-{4-[N-(2-Hydroxyethyl)-N-(β-3,4-dimethoxyphenethyl)aminocarbonyl]butoxy}carbostyril]",82.6%,29.2%,100%,73.2%,28.8%,> 1000 mg/kg,–
"O=C(CCCOc1ccc2[nH]c(=O)ccc2c1)N(CCO)C1CCCC(O)C1 (centres unmarked) [No. 19, 6-{3-[N-(2-Hydroxyethyl)-N-(3-hydroxycyclohexyl)aminocarbonyl]propoxy}carbostyril]",95.3%,47.5%,100%,63.2%,12%,> 1000 mg/kg,–
"O=C1CCc2cc(OCCCC(=O)Nc3c(Cl)cccc3Cl)ccc2N1 [No. 44, 6-[3-(o,o-Dichloroanilinocarbonyl)propoxy]-3,4-dihydrocarbostyril, reference compound]",27.6%,–,36.8%,5.3%,–,–,"inhibition at 100 µM [1, 5]: 95.1%"
"CCC(O)CN(CC1CCCCC1)C(=O)CCCCOc1ccc2c(c1)CCC(=O)N2 (centres unmarked) [No. 7, 6-{4-[N-(2-Hydroxybutyl)-N-cyclohexylmethylaminocarbonyl]butoxy}-3,4-dihydrocarbostyril]",100%,13.3%,100%,64.3%,18.6%,> 1000 mg/kg,–
"O=C1CCc2cc(OCC(=O)N3CCOCC3)ccc2N1 [No. 65, 6-(Morpholinocarbonylmethoxy)-3,4-dihydrocarbostyril, reference compound]",0%,0%,13%,6%,0%,–,"inhibition at 100 µM [1, 5]: 5%"
"CC(=O)Oc1ccccc1C(=O)O [No. 69, Aspirin, reference compound]",–,–,–,–,–,–,inhibition at 1 µM [1]: 7%; inhibition at 10 µM [1]: 9%; inhibition at 100 µM [1]: 65%
"CC(C)NC(=O)CCOc1ccc2c(c1)CCC(=O)N2 [No. 64, 6-(N--Isopropylaminocarbonylethoxy)-3,4-dihydrocarbostyril, reference compound]",–,–,–,–,–,–,"Inhibition effect on collagen-induced aggregation [1, 5]: 17%; Inhibition effect on collagen-induced aggregation [1, 4]: 0%; Inhibition effect on collagen-induced aggregation [1, 6]: 0%; Inhibition effect on ADP-induced aggregation [2, 5]: 18%; Inhibition effect on ADP-induced aggregation [2, 3]: 13%; Inhibition effect on ADP-induced aggregation [2, 4]: 7%"
"O=C1CCc2cc(OCCCC(=O)N(C3CCCCC3)C3CCCCC3Cl)ccc2N1 (centres unmarked) [No. 30, 6-{3-[N--Cyclohexyl-N--(2-chlorocyclohexyl)-aminocarbonyl]propoxy}-3,4-dihydrocarbostyril, reference compound]",–,–,–,–,–,–,"Inhibition effect on collagen-induced aggregation [1, 5]: 91.5%; Inhibition effect on collagen-induced aggregation [1, 3]: 89.9%; Inhibition effect on collagen-induced aggregation [1, 4]: 50.3%; Inhibition effect on ADP-induced aggregation [2, 5]: 89.8%; Inhibition effect on ADP-induced aggregation [2, 3]: 82.9%; Inhibition effect on ADP-induced aggregation [2, 4]: 38.4%"
"CN(Cc1cccs1)C(=O)CCCOc1ccc2[nH]c(=O)ccc2c1 [No. 5, 6-{3-[N-Methyl-N-(2-thienylmethyl)aminocarbonyl]propoxy}carbostyril]",30.7%,–,100%,54.7%,7.1%,> 1000 mg/kg,"inhibition at 100 µM [1, 5]: 85.7%"
"O=C1CCc2cc(OCCCC(=O)N3CCN(C4CCCCC4)CC3)ccc2N1 [No. 18, 6-[3-(4-Cyclohexyl-1-piperazinylcarbonyl)propoxy]-3,4-dihydrocarbostyril]",45.6%,15.2%,100%,42.1%,7%,> 1000 mg/kg,–
"O=C1CCc2cc(OCCCC(=O)N3CCN(c4ccccc4)CC3)ccc2N1 [No. 17, 6-[3-(4-Phenyl-1-piperazinylcarbonyl)propoxy]-3,4-dihydrocarbostyril]",37.8%,3.4%,100%,25.1%,4.3%,> 1000 mg/kg,–
"CCC(O)CN(C(=O)CCCCOc1ccc2[nH]c(=O)ccc2c1)C1CCCCCCC1 (centres unmarked) [No. 9, 6-{4-[N-(2-Hydroxybutyl)-N-cyclooctylaminocarbonyl]butoxy}carbostyril]",100%,100%,100%,84.9%,40.1%,> 1000 mg/kg,"inhibition at 0.1 µM [1, 6]: 43.2%; inhibition at 0.1 µM [2]: 5.6%"
"O=C1CCc2cc(OCCCCC(=O)N(CCO)Cc3ccccc3)ccc2N1 [No. 22, 6-{4-[N-(2-Hydroxyethyl)-N-benzylaminocarbonyl]butoxy}-3,4-dihydrocarbostyril]",49.2%,16.1%,100%,63.2%,28.8%,> 1000 mg/kg,–
"O=C1CCc2cc(OCCCCC(=O)N(CCO)c3ccccc3)ccc2N1 [No. 11, 6-{4-[N-(2-Hydroxyethyl)-N-phenylaminocarbonyl]butoxy}-3,4-dihydrocarbostyril]",100%,33.9%,100%,49.5%,22.4%,> 1000 mg/kg,–
